# pIC50: −log10 of the molar value.
# Target: T1, human 11βHSD1 enzyme (Homo sapiens, UniProt P28845)
# T1 construct: stably transfected with a construct containing fill-length human 11βHSD1 enzyme (in pCMVHyg); expressed in transfected cells; host or cells: HeLa cells (human cervical carcinoma) stably carrying the GRE4-β-galactosidase reporter and 11βHSD1 in pCMVHyg
# Assay: HeLa GRE4-βGal/11βHSD1 cell reporter assay (cortisone to cortisol conversion, β-galactosidase readout)
# Format: cell-based
# Settings: HeLa GRE4-βGal/11βHSD1 cells, cortisone 1 μM, overnight incubation
# Source text: HeLa cells (human cervical carcinoma derived cells) were stably transfected with a construct containing four copies of the glucocorticoid response element (GRE) linked to a beta-galactosidase reporter gene (3 kb lac Z gene derived from pSV-B-galactosidase). These cells were then further stably transfected with a construct containing fill-length human 11βHSD1 enzyme (in pCMVHyg) to create GRE4-βGal/11βHSD1 cells. The principal of the assay is as follows. Cortisone is freely taken up by the cells and is converted to cortisol by 11βHSD1 oxo-reductase activity and cortisol (but not cortisone) binds to and activates the glucocorticoid receptor. Activated glucocorticoid receptor then binds to the GRE and initiates transcription and translation of β-galactosidase. Enzyme activity can then be assayed with high sensitivity by colourimetric assay.
# Cells were routinely cultured in DMEM (Invitrogen, Paisley, Renfrewshire, UK) containing 10% foetal calf serum (LabTech), 1% glutamine (Invitrogen), 1% penicillin & streptomycin (Invitrogen), 0.5 mg/ml G418 (Invitrogen) & 0.5 mg/ml hygromycin (Boehringer). Assay media was phenol red free-DMEM containing 1% glutamine, 1% penicillin & streptomycin.
# Compounds (1 mM) to be tested were dissolved in dimethyl sulphoxide (DMSO) and serially diluted into assay media containing […]. […]
# A cocktail (25 μl) consisting of 10× Z-buffer (600 mM Na2HPO4, 400 mM NaH2PO4.2H2O, 100 mM KCl, 10 mM MgSO4.7H2O, 500 mM, β-mercaptoethanol, pH 7.0), SDS (0.2%), chlorophenol red-β-D-galactopyranoside (5 mM, Roche Diagnostics) was added per well and plates incubated at 37° C. for 34 hours. β-Galactosidase activity was indicated by a yellow to red colour change (absorbance at 570 nm) measured using a Tecan Spectrafluor Ultra.
# The calculation of median inhibitory concentration (IC50) values for the inhibitors was performed using Origin 6.0 (Microcal Software, Northampton Mass. USA). Dose response curves for each inhibitor were plotted as OD units at each inhibitor concentration with relation to a maximum signal (cortisone, no compound) and IC50 values calculated. […]
# T1 sequence (P28845 whole entry): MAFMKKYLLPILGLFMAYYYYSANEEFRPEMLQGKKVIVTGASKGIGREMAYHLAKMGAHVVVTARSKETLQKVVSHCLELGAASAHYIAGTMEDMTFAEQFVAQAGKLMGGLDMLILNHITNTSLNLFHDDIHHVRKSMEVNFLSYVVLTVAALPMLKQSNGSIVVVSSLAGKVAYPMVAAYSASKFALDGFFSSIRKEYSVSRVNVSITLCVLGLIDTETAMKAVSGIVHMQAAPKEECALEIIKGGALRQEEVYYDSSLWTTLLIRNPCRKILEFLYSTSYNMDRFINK
row,SMILES,pIC50
1,CC(C)S(=O)(=O)N1CCCC(C(=O)c2ccc(F)cc2)C1 (stereo not drawn) [Example 13],8.00
2,O=C(c1ccc(F)cc1)C1CCCN(C(=O)c2ccc(Cl)s2)C1 (stereo not drawn) [Example 18],6.69
3,O=C(c1ccc(F)cc1)C1CCCN(C(=O)Cc2ccc(F)cc2)C1 (stereo not drawn) [Example 17],7.08
